According to patent US20250352520A1, “USE OF DEXPRAMIPEXOLE FOR THE TREATMENT OF EOSINOPHILIC COPD” (Areteia Therapeutics, Inc., priority 2024, published 2025):

Conditions: Week 12; <50% AEC reduction at Week 16

Q: With CCCN[C@@H]1CCc2nc(N)sc2C1 [Dexpramipexole, (6R)-2-amino-4,5,6,7-tetrahydro-6-(propylamino)benzothiazole] as the compound, how does the “Pre-BD FEF25-75 % change from baseline, Max” value read?
A: Its value is 47%.

Q: What about the “Pre-BD FEF25-75 % change from baseline, Mean ± SD” value of the same compound?
A: Its value is 23.9 ± 28.49%.

Q: What about the “Pre-BD FEF25-75 % change from baseline, Median” value of the same compound?
A: The value was 30.3%.

Q: What about the “Pre-BD FEF25-75 % change from baseline, Min” value of the same compound?
A: The value was −12%.

Q: What about the “Pre-BD FEF25-75 % change from baseline, Q1” value of the same compound?
A: The value was 1%.

Q: And the “Pre-BD FEF25-75 % change from baseline, Q3” value?
A: Its value is 47%.

Q: What about the “Pre-BD FEF25-75 Observed, Max” value of the same compound?
A: The value was 2050 mL/s.

Q: What about the “Pre-BD FEF25-75 Observed, Mean ± SD” value of the same compound?
A: Its value is 857.5 ± 805.29 mL/s.

Q: And the “Pre-BD FEF25-75 Observed, Median” value?
A: Its value is 515.0 mL/s.

Q: And the “Pre-BD FEF25-75 Observed, Min” value?
A: Its value is 350 mL/s.

Q: And the “Pre-BD FEF25-75 Observed, Q1” value?
A: The value was 370 mL/s.

Q: And the “Pre-BD FEF25-75 Observed, Q3” value?
A: The value was 1345 mL/s.

Q: And the “Pre-BD FEF25-75 change from baseline, Max” value?
A: Its value is 660 mL/s.

Q: And the “Pre-BD FEF25-75 change from baseline, Mean ± SD” value?
A: Its value is 182.5 ± 329.18 mL/s.

Q: What about the “Pre-BD FEF25-75 change from baseline, Median” value of the same compound?
A: The value was 80.0 mL/s.

Q: What about the “Pre-BD FEF25-75 change from baseline, Min” value of the same compound?
A: The value was -90 mL/s.

Q: What about the “Pre-BD FEF25-75 change from baseline, Q1” value of the same compound?
A: Its value is -20 mL/s.

Q: What about the “Pre-BD FEF25-75 change from baseline, Q3” value of the same compound?
A: The value was 385 mL/s.

Q: What about the “Pre-BD FEV1 % change from baseline, Max” value of the same compound?
A: Its value is 41%.

Q: And the “Pre-BD FEV1 % change from baseline, Mean ± SD” value?
A: Its value is 10.1 ± 21.78%.

Q: And the “Pre-BD FEV1 % change from baseline, Median” value?
A: Its value is 4.2%.

Q: And the “Pre-BD FEV1 % change from baseline, Min” value?
A: The value was −9%.

Q: What about the “Pre-BD FEV1 % change from baseline, Q1” value of the same compound?
A: The value was −3%.

Q: And the “Pre-BD FEV1 % change from baseline, Q3” value?
A: Its value is 23%.

Q: And the “Pre-BD FEV1 Observed, Max” value?
A: Its value is 2940 mL.

Q: What about the “Pre-BD FEV1 Observed, Mean ± SD” value of the same compound?
A: The value was 1672.5 ± 886.84 mL.

Q: And the “Pre-BD FEV1 Observed, Median” value?
A: Its value is 1440.0 mL.

Q: And the “Pre-BD FEV1 Observed, Min” value?
A: Its value is 870 mL.

Q: What about the “Pre-BD FEV1 Observed, Q1” value of the same compound?
A: Its value is 1145 mL.

Q: And the “Pre-BD FEV1 Observed, Q3” value?
A: The value was 2200 mL.

Q: And the “Pre-BD FEV1 change from baseline, Max” value?
A: Its value is 860 mL.

Q: And the “Pre-BD FEV1 change from baseline, Mean ± SD” value?
A: The value was 200.0 ± 449.52 mL.

Q: And the “Pre-BD FEV1 change from baseline, Median” value?
A: The value was 45.0 mL.

Q: And the “Pre-BD FEV1 change from baseline, Min” value?
A: The value was -150 mL.

Q: And the “Pre-BD FEV1 change from baseline, Q1” value?
A: Its value is -55 mL.

Q: And the “Pre-BD FEV1 change from baseline, Q3” value?
A: Its value is 455 mL.

Q: What about the “Pre-BD FVC % change from baseline, Max” value of the same compound?
A: The value was 10%.

Q: What about the “Pre-BD FVC % change from baseline, Mean ± SD” value of the same compound?
A: The value was −3.1 ± 11.75%.

Q: What about the “Pre-BD FVC % change from baseline, Median” value of the same compound?
A: The value was −2.9%.

Q: What about the “Pre-BD FVC % change from baseline, Min” value of the same compound?
A: The value was −17%.

Q: What about the “Pre-BD FVC % change from baseline, Q1” value of the same compound?
A: The value was −12%.

Q: What about the “Pre-BD FVC % change from baseline, Q3” value of the same compound?
A: The value was 6%.

Q: What about the “Pre-BD FVC Observed, Max” value of the same compound?
A: Its value is 3990 mL.

Q: And the “Pre-BD FVC Observed, Mean ± SD” value?
A: The value was 2942.5 ± 825.44 mL.

Q: What about the “Pre-BD FVC Observed, Median” value of the same compound?
A: The value was 2830.0 mL.

Q: And the “Pre-BD FVC Observed, Min” value?
A: The value was 2120 mL.

Q: And the “Pre-BD FVC Observed, Q1” value?
A: Its value is 2300 mL.

Q: And the “Pre-BD FVC Observed, Q3” value?
A: Its value is 3585 mL.

Q: What about the “Pre-BD FVC change from baseline, Max” value of the same compound?
A: The value was 370 mL.

Q: And the “Pre-BD FVC change from baseline, Mean ± SD” value?
A: Its value is -52.5 ± 345.68 mL.

Q: What about the “Pre-BD FVC change from baseline, Median” value of the same compound?
A: The value was -75.0 mL.

Q: What about the “Pre-BD FVC change from baseline, Min” value of the same compound?
A: Its value is -430 mL.

Q: And the “Pre-BD FVC change from baseline, Q1” value?
A: Its value is -320 mL.

Q: And the “Pre-BD FVC change from baseline, Q3” value?
A: The value was 215 mL.

Q: What about the “Pre-BD Peak Flow % change from baseline, Max” value of the same compound?
A: Its value is 478%.

Q: And the “Pre-BD Peak Flow % change from baseline, Mean ± SD” value?
A: The value was 121.7 ± 237.65%.

Q: And the “Pre-BD Peak Flow % change from baseline, Median” value?
A: Its value is 12.2%.

Q: What about the “Pre-BD Peak Flow % change from baseline, Min” value of the same compound?
A: The value was −15%.

Q: And the “Pre-BD Peak Flow % change from baseline, Q1” value?
A: Its value is −5%.

Q: What about the “Pre-BD Peak Flow % change from baseline, Q3” value of the same compound?
A: The value was 249%.

Q: What about the “Pre-BD Peak Flow Observed, Max” value of the same compound?
A: Its value is 246 L/min.

Q: What about the “Pre-BD Peak Flow Observed, Mean ± SD” value of the same compound?
A: The value was 204.8 ± 42.39 L/min.

Q: What about the “Pre-BD Peak Flow Observed, Median” value of the same compound?
A: Its value is 210.5 L/min.

Q: What about the “Pre-BD Peak Flow Observed, Min” value of the same compound?
A: The value was 152 L/min.

Q: What about the “Pre-BD Peak Flow Observed, Q1” value of the same compound?
A: The value was 171 L/min.

Q: And the “Pre-BD Peak Flow Observed, Q3” value?
A: The value was 239 L/min.

Q: What about the “Pre-BD Peak Flow change from baseline, Max” value of the same compound?
A: The value was 191 L/min.

Q: What about the “Pre-BD Peak Flow change from baseline, Mean ± SD” value of the same compound?
A: Its value is 48.3 ± 98.44 L/min.

Q: And the “Pre-BD Peak Flow change from baseline, Median” value?
A: Its value is 18.0 L/min.

Q: And the “Pre-BD Peak Flow change from baseline, Min” value?
A: The value was -34 L/min.

Q: What about the “Pre-BD Peak Flow change from baseline, Q1” value of the same compound?
A: Its value is -12 L/min.

Q: And the “Pre-BD Peak Flow change from baseline, Q3” value?
A: The value was 108 L/min.
